Patent US20200369674A1, “ANTI-PAIN COMPOUND AND PREPARATION METHOD THEREOF” (LUNAN PHARMACEUTICAL GROUP CORPORATION, priority 2017, published 2020)

What was measured:
[1] = test system: ICR mice; experiment: Acetic acid writhing test; assay type: in vivo; parameters: key to Inhibition rate (%): Symbol “—” indicates that the data obtained at this dose was not significantly different from the vehicle control group; details: 1 mg/kg intragastric, 0.6% acetic acid ip two hours after administration
Protocol: (§1) ICR mice, 18-22 g, half of them being male and the other half being female, provided by the Department of Laboratory Animals, Peking University (License No.: SCXK (Beijing) 2016-0010).
ICR mice, half of them being male and the other half being female, were randomly grouped, 8 mice per group. Vehicle control group (double-distilled water), ibuprofen control group, and groups for samples to be tested (the compounds and doses thereof were shown in Table 2) were set. All drugs were dissolved in double-distilled water before administration, and given by intragastric administration at predetermined doses. Two hours after the administration, the mice were intraperitoneally injected with 0.6% acetic acid solution (10 ml/kg, ip), and the number of times the mice writhed (abdomen depressed, buttock raised, body elongated) was recorded within 5-20 minutes. The inhibition rate % of compound on writhing pain in mice was calculated according to the following formula.
Inhibition rate %=(number of writhing times in vehicle control group−number of writhing times in test group)/number of writhing times in vehicle control group×100

[2] = test system: ICR mice; experiment: Xylene-induced mouse ear swelling test (Effect Example 4); assay type: in vivo; details: Mus musculus, po, 2 h; 1 mg/kg intragastric, 50 uL xylene two hours after administration; read-out: Inhibition rate (%)
Protocol: as §1
ICR mice were randomly grouped, 8 mice per group, half of them being male and the other half being female. Vehicle control group (double-distilled water) and groups for samples to be tested (the compounds and doses thereof were shown in Table 4). All drugs were dissolved in double-distilled water immediately before administration, and given by intragastric administration at predetermined doses. Two hours after administration, 50 uL of xylene was smeared evenly on the inner and outer sides of right ear of mouse. After 30 minutes, the left and right ears of mouse were cut, and circular ear pieces of the same size were punched at the same position on the left and right ears, and weighed. The ear swelling inhibition rate of compound in mice was calculated according to the formula.
Inhibition rate %=(degree of ear swelling in vehicle control group−degree of ear swelling in test group)/degree of ear swelling in vehicle control group×100

[3] = test system: CCI rats; experiment: Thermal stimulation paw withdrawal latency (PWL) in CCI rats; assay type: in vivo, SD rats; details: for PWL: hot plate 50.5° C., cut-off 14s, mean±SEM
Protocol: SD rats, body weight 180 g-220 g, half of them being male and the other half being female, provided by the Department of Laboratory Animals, Peking University. The rats were raised in a standard environment with temperature of 22±0.5° C. and relative humidity of 55±5%, 12 h/12 h light-dark cycle, and fed with standard feed.
Rat was anesthetized with pentobarbital sodium (60 mg/kg, i.p.), the right hind limb was surgically shaved, fixed in the prone position, a longitudinal incision was made along the middle of the right hind limb of the rat, the muscle was bluntly separated, the sciatic nerve was exposed, and the sciatic nerve bifurcate proximal end was loosely ligated with 4-0 silk suture for 4 times, with an interval of about 1 mm each time, in which the degree of tightness was suitable when it was observed that the right hind leg was slightly shaken. After ligation, the muscle and skin were sutured in sequence. For the sham-operated group, the sciatic nerve was only exposed, but not ligated. The success of modeling was determined by observing whether the hind limb of the rat's operation side was closed, slightly valgus and often vacated, and by measuring the mechanical stimulation paw withdrawal threshold and the thermal stimulation paw withdrawal latency of the rat.
Before surgery, the mechanical stimulation paw withdrawal thresholds and the thermal stimulation paw withdrawal latencies in the rats were determined, and the rats were grouped as: sham operation group (sham), vehicle group (double-distilled water, i.g.), DXL-A-22 group (2 mg/kg, i.g.), DXL-A-24 group (1 mg/kg, i.g.), and Gabapentin group (100 mg/kg, i.g.). All compounds and drugs were dissolved in double-distilled water, and given by intragastric administration at 1 mL/100 g. From the first day after surgery, the administration was carried out every day, and the mechanical stimulation paw withdrawal threshold and the thermal stimulation paw withdrawal latency were measured 2 hours after administration.
The thermal stimulation paw withdrawal latency (PWL) was measured by a hot plate method. The measurement was carried out on the days 5, 7 and 14 after operation. The temperature of the hot plate was 50.5° C. Timing started when the rat was placed on the hot plate, and stopped when the shaking and foot licking responses of the rat appeared, and this time was the PWL of the rat. The hot plate cut-off time was 14s, and the percentage of analgesia (i.e., MPE %) was calculated according to formula (3):
MPE %=(PWL of test group−PWL of vehicle group)/(cut-off time−PWL of vehicle group)×100 (3)

[4] = test system: ICR mice; experiment: Xylene-induced ear swelling test in mice (Effect Example 6); assay type: in vivo; details: 1 mg/kg i.g., 30 μL xylene one hour after administration; for Swelling degree: mean±SD
Protocol: ICR mice, body weight 18 g-22 g, half of them being male and the other half being female, provided by the Department of Laboratory Animals, Peking University. The animals were raised in a standard environment: temperature 23±1° C., relative humidity 55±5%, light-dark cycle 12 h/12 h, and fed with standard pellet feed.
Mice were randomly divided into 5 groups, 8 mice per group, half of them being male and the other half being female. Vehicle control group (double-distilled water, i.g.), dexamethasone control group (2 mg/kg, i.g.), compound DXL-A-22 group (1 mg/kg, i.g.), and compound DXL-A-24 group (1 mg/kg, i.g.) were set. All drugs were dissolved in double-distilled water before administration, and given by intragastric administration at 0.1 mL/10 g. One hour after administration, 30 μL of xylene was evenly smeared on the inner and outer sides of right ear of mouse to cause inflammation. After 0.5 hour, the left and right ears of mouse were cut, and circular ear pieces of the same size were punched at the same position on the left and right ears using the punch (diameter 6 mm) respectively, and weighed for the weights of the left and right ear pieces. The difference between the weight of the right ear after applying xylene and the weight of the left ear without applying xylene was used as swelling degree index (i.e., swelling degree). The swelling degree was calculated according to formula (1). The intensity of anti-inflammatory effect was expressed as inhibition rate (%), and the inhibition rate (%) was calculated according to formula (2).
Swelling degree=weight of right ear piece−weight of left ear piece (1)
Inflammation inhibition rate (%)=(ear swelling degree in vehicle control group−ear swelling degree in drug group)/ear swelling degree in vehicle control group×100% (2)

[5] = 2 mg/kg i.g. daily, Day 5 after operation, section 3.2
[6] = 2 mg/kg i.g. daily, Day 7 after operation, section 3.2
[7] = 2 mg/kg i.g. daily, Day 14 after operation, section 3.2
[8] = 1 mg/kg i.g. daily, Day 5 after operation, section 3.4
[9] = 1 mg/kg i.g. daily, Day 7 after operation, section 3.4
[10] = 1 mg/kg i.g. daily, Day 14 after operation, section 3.4

## Br.Brc1ccc(N2CC[N+]3(CCCC3)CC2)cc1 [DXL-A-22, 8-(4-bromophenyl)-5,8-diazaspiro[4.5]decan-5-ium bromide]
[1]
  Inhibition rate (%): —
[2]
  inhibition in vivo at 1 mg/kg: 47%
[3]; [5]
  PWL: 10.84 ± 0.32**/
  MPE(%): 51.61%
[3]; [6]
  PWL: 11.28 ± 0.64**/
  MPE(%): 58.91%
[3]; [7]
  PWL: 11.19 ± 0.52**/
  MPE(%): 55.61%
[4]
  Inhibition rate (%): 42.62%
  Swelling degree: 5.48 ± 0.16 mg

## FC(F)(F)c1ccc(N2CC[N+]3(CCCC3)CC2)cc1.[Br-] [DXL-A-24, 8-(4-(trifluoromethyl)phenyl)-5,8-diazaspiro[4.5]decan-5-ium bromide]
[1]
  Inhibition rate (%): —
[2]
  inhibition in vivo at 1 mg/kg: 53.4%
[3]; [8]
  PWL: 11.29 ± 0.57**/
  MPE(%): 52.62%
[3]; [9]
  PWL: 12.35 ± 0.55**/
  MPE(%): 72.36%
[3]; [10]
  PWL: 13.26 ± 0.43**/
  MPE(%): 88.79%
[4]
  Inhibition rate (%): 51.41%
  Swelling degree: 4.64 ± 0.11 mg
